Measured values reported in patent US6906205B2, “Spiro and dispiro 1,2,4-trioxolane antimalarials” (Medicines for Malaria Venture MMV, priority 2002, dated 2005).
Converted amounts (≈) assume the structure as drawn.

Each molecule was assayed on P. falciparum K1 strain (Thailand resistant to chloroquine) (assay: semiautomated microdilution assay, [3H]-hypoxanthine incorporation, K1 strain). Details: K1 strain, 72 h incubation.
Type: cell-based, Plasmodium falciparum
Summary of the method: (§1)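 Asynchronous stock cultures → intraerythrocytic forms; semiautomated microdilution; IC50 by logit regression.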

Compared with CC(=O)OC(C)(C)C(=O)N[C@H]1CC[C@]2(CC1)OOC1(O2)C2CC3CC(C2)CC1C3 (some centres unmarked) [OZ202], CC(=O)OCC(=O)N1CCC2(CC1)OOC1(O2)C2CC3CC(C2)CC1C3 (centres unmarked) [OZ82] is 12-fold lower in “IC50 (ng/ml) K1” value: 6.0 ng/mL (≈ 14.7 nM) for the first, 0.48 ng/mL (≈ 1.31 nM) for the second.

Going from CS(=O)(=O)c1ccc([C@H]2CC[C@]3(CC2)OOC2(O3)C3CC4CC(C3)CC2C4)cc1 (some centres unmarked) [OZ178] to S=C(Nc1ccccc1)N1CCC2(CC1)OOC1(O2)C2CC3CC(C2)CC1C3 (centres unmarked) [OZ144], the “IC50 (ng/ml) K1” value falls from 21 ng/mL (≈ 50.2 nM) to 1.4 ng/mL (≈ 3.5 nM) (15-fold).

Same assay, conditions: Plasmodium falciparum, K1, 72 h, read-out: IC50 (ng/ml) K1

For OCCC1CCC2(CC1)OOC1(O2)C2CC3CC(C2)CC1C3 (centres unmarked) [OZ89], the IC50 was 0.3 ng/mL (≈ 0.973 nM).

Same assay, conditions: Plasmodium falciparum; K1 strain, 72 h incubation; read-out: IC50 (ng/ml) K1

O=C1CCC2(CCO1)OOC1(O2)C2CC3CC(C2)CC1C3 (centres unmarked) [OZ17] was tested, and the IC50 was 85 ng/mL (≈ 289 nM).

These molecules were tested on P. falciparum NF54 strain (sensitive to standard antimalarials) (assay: semiautomated microdilution assay, [3H]-hypoxanthine incorporation, NF54 strain). Details: NF54 strain, 72 h incubation.
Type: cell-based, Plasmodium falciparum
Summary of the method: as §1

First: CC(=O)OC(C)(C)C(=O)N[C@H]1CC[C@]2(CC1)OOC1(O2)C2CC3CC(C2)CC1C3 (some centres unmarked) [OZ202]
Second: CC(=O)OCC(=O)N1CCC2(CC1)OOC1(O2)C2CC3CC(C2)CC1C3 (centres unmarked) [OZ82]
The “IC50 (ng/ml) NF54” value of the first is 6.6-fold higher: 7.9 ng/mL (≈ 19.4 nM) for the first, 1.2 ng/mL (≈ 3.28 nM) for the second.

First: CS(=O)(=O)c1ccc([C@H]2CC[C@]3(CC2)OOC2(O3)C3CC4CC(C3)CC2C4)cc1 (some centres unmarked) [OZ178]
Second: S=C(Nc1ccccc1)N1CCC2(CC1)OOC1(O2)C2CC3CC(C2)CC1C3 (centres unmarked) [OZ144]
The “IC50 (ng/ml) NF54” value of the first is 13-fold higher: 27 ng/mL (≈ 64.5 nM) for the first, 2.1 ng/mL (≈ 5.24 nM) for the second.

Same assay, conditions: Plasmodium falciparum, NF54, 72 h, read-out: IC50 (ng/ml) NF54

OCCC1CCC2(CC1)OOC1(O2)C2CC3CC(C2)CC1C3 (centres unmarked) [OZ89] showed an IC50 of 0.75 ng/mL (≈ 2.43 nM).

Same assay, conditions: Plasmodium falciparum; NF54 strain, 72 h incubation; read-out: IC50 (ng/ml) NF54

O=C1CCC2(CCO1)OOC1(O2)C2CC3CC(C2)CC1C3 (centres unmarked) [OZ17] was tested, and the IC50 was over 100 ng/mL.

The molecules below were run on ANKA strain of P. berghei (assay: single dose STI in vivo screen in infected mice). Details: percent reduction in parasitemia day 3 post-infection; single 10 mg/kg po in 3% ethanol and 7% Tween 80; mice.
Set-up: species or system Plasmodium berghei
Summary of the method: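 Groups of 3-5 Moro SPF or NMRI mice infected with the ANKA strain of P. berghei received a single dose of trioxolane on day one post-infection. The compound was given in 3% ethanol and 7% Tween 80 or in SSV (0.5% w/v CMC, 0.5% v/v benzyl alcohol, 0.4% v/v Tween 80, 0.9% w/v sodium chloride in water). Antimalarial activity was scored as percent reduction in parasitemia on day three and as survival time versus untreated controls. Survival to day 30 counted as cure.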

First: OCCC1CCC2(CC1)OOC1(O2)C2CC3CC(C2)CC1C3 (centres unmarked) [OZ89]
Second: O=C1CCC2(CCO1)OOC1(O2)C2CC3CC(C2)CC1C3 (centres unmarked) [OZ17]
The “Activity (%) po” value of the first is higher: 94% for the first, 0% for the second.

Compared with CC(=O)OC(C)(C)C(=O)N[C@H]1CC[C@]2(CC1)OOC1(O2)C2CC3CC(C2)CC1C3 (some centres unmarked) [OZ202], CC(=O)OCC(=O)N1CCC2(CC1)OOC1(O2)C2CC3CC(C2)CC1C3 (centres unmarked) [OZ82] is higher in “Activity (%) po” value: 79% for the first, 91% for the second.

First: CS(=O)(=O)c1ccc([C@H]2CC[C@]3(CC2)OOC2(O3)C3CC4CC(C3)CC2C4)cc1 (some centres unmarked) [OZ178]
Second: S=C(Nc1ccccc1)N1CCC2(CC1)OOC1(O2)C2CC3CC(C2)CC1C3 (centres unmarked) [OZ144]
The “Activity (%) po” value of the first is lower: 32% for the first, 99.45% for the second.

Same assay, conditions: percent reduction in parasitemia day 3 post-infection; single 10 mg/kg sc in 3% ethanol and 7% Tween 80; mice

Going from OCCC1CCC2(CC1)OOC1(O2)C2CC3CC(C2)CC1C3 (centres unmarked) [OZ89] to O=C1CCC2(CCO1)OOC1(O2)C2CC3CC(C2)CC1C3 (centres unmarked) [OZ17], the “Activity (%) sc” value falls from 99.8% to 18%.

First: CC(=O)OC(C)(C)C(=O)N[C@H]1CC[C@]2(CC1)OOC1(O2)C2CC3CC(C2)CC1C3 (some centres unmarked) [OZ202]
Second: CC(=O)OCC(=O)N1CCC2(CC1)OOC1(O2)C2CC3CC(C2)CC1C3 (centres unmarked) [OZ82]
The “Activity (%) sc” value of the first is lower: 74% for the first, 79% for the second.

Compared with CS(=O)(=O)c1ccc([C@H]2CC[C@]3(CC2)OOC2(O3)C3CC4CC(C3)CC2C4)cc1 (some centres unmarked) [OZ178], S=C(Nc1ccccc1)N1CCC2(CC1)OOC1(O2)C2CC3CC(C2)CC1C3 (centres unmarked) [OZ144] is higher in “Activity (%) sc” value: 31% for the first, 99.94% for the second.

Same assay, conditions: percent reduction in parasitemia day 3 post-infection; single po dose in standard suspending vehicle (SSV); mice

Going from OCCC1CCC2(CC1)OOC1(O2)C2CC3CC(C2)CC1C3 (centres unmarked) [OZ89] to CC(=O)OC(C)(C)C(=O)N[C@H]1CC[C@]2(CC1)OOC1(O2)C2CC3CC(C2)CC1C3 (some centres unmarked) [OZ202], the “Activity (%) SSVpo” value falls from 89% to 51%.

Compared with CS(=O)(=O)c1ccc([C@H]2CC[C@]3(CC2)OOC2(O3)C3CC4CC(C3)CC2C4)cc1 (some centres unmarked) [OZ178], S=C(Nc1ccccc1)N1CCC2(CC1)OOC1(O2)C2CC3CC(C2)CC1C3 (centres unmarked) [OZ144] is higher in “Activity (%) SSVpo” value: 23% for the first, 92% for the second.

Same assay, conditions: single 10 mg/kg po in 3% ethanol and 7% Tween 80; untreated control 5.6 ± 0.3

Compared with OCCC1CCC2(CC1)OOC1(O2)C2CC3CC(C2)CC1C3 (centres unmarked) [OZ89], O=C1CCC2(CCO1)OOC1(O2)C2CC3CC(C2)CC1C3 (centres unmarked) [OZ17] is lower in “Survival (days) po” value: 7.3 days for the first, 5.3 days for the second.

Going from CC(=O)OC(C)(C)C(=O)N[C@H]1CC[C@]2(CC1)OOC1(O2)C2CC3CC(C2)CC1C3 (some centres unmarked) [OZ202] to CC(=O)OCC(=O)N1CCC2(CC1)OOC1(O2)C2CC3CC(C2)CC1C3 (centres unmarked) [OZ82], the “Survival (days) po” value rises from 7.0 days to 7.3 days.

CS(=O)(=O)c1ccc([C@H]2CC[C@]3(CC2)OOC2(O3)C3CC4CC(C3)CC2C4)cc1 (some centres unmarked) [OZ178] and S=C(Nc1ccccc1)N1CCC2(CC1)OOC1(O2)C2CC3CC(C2)CC1C3 (centres unmarked) [OZ144] are the same in “Survival (days) po” value: 7.3 days for the first, 7.3 days for the second.

Same assay, conditions: single 10 mg/kg sc in 3% ethanol and 7% Tween 80; untreated control 5.6 ± 0.3

Going from OCCC1CCC2(CC1)OOC1(O2)C2CC3CC(C2)CC1C3 (centres unmarked) [OZ89] to O=C1CCC2(CCO1)OOC1(O2)C2CC3CC(C2)CC1C3 (centres unmarked) [OZ17], the “Survival (days) sc” value falls from 8.7 days to 6.3 days.

Going from CC(=O)OC(C)(C)C(=O)N[C@H]1CC[C@]2(CC1)OOC1(O2)C2CC3CC(C2)CC1C3 (some centres unmarked) [OZ202] to CC(=O)OCC(=O)N1CCC2(CC1)OOC1(O2)C2CC3CC(C2)CC1C3 (centres unmarked) [OZ82], the “Survival (days) sc” value falls from 7.3 days to 7.0 days.

Compared with CS(=O)(=O)c1ccc([C@H]2CC[C@]3(CC2)OOC2(O3)C3CC4CC(C3)CC2C4)cc1 (some centres unmarked) [OZ178], S=C(Nc1ccccc1)N1CCC2(CC1)OOC1(O2)C2CC3CC(C2)CC1C3 (centres unmarked) [OZ144] is higher in “Survival (days) sc” value: 10.0 days for the first, 16.7 days for the second.

Same assay, conditions: single po dose in SSV; untreated control 5.6 ± 0.3

Going from OCCC1CCC2(CC1)OOC1(O2)C2CC3CC(C2)CC1C3 (centres unmarked) [OZ89] to CC(=O)OC(C)(C)C(=O)N[C@H]1CC[C@]2(CC1)OOC1(O2)C2CC3CC(C2)CC1C3 (some centres unmarked) [OZ202], the “Survival (days) SSVpo” value rises from 6.7 days to 7.3 days.

CS(=O)(=O)c1ccc([C@H]2CC[C@]3(CC2)OOC2(O3)C3CC4CC(C3)CC2C4)cc1 (some centres unmarked) [OZ178] and S=C(Nc1ccccc1)N1CCC2(CC1)OOC1(O2)C2CC3CC(C2)CC1C3 (centres unmarked) [OZ144] are the same in “Survival (days) SSVpo” value: 7.3 days for the first, 7.3 days for the second.
